How the values were obtained:
[1] = molecular target: T1, proMMP9 processing to active MMP9 in HFL-1 cells (Homo sapiens, UniProt P14780); assay: Activation of proMMP9 by human fetal lung fibroblast (HFL-1) cultures (Western blot); type: cell-based
T1 construct: host or cells: HFL-1 human fetal lung fibroblasts, TNFα plus neutrophil elastase
Description: Activation of proMMP 9 by Human Fetal Lung Fibroblast Cultures
Compound-α was assessed additionally for ability to block the maturation of proMMP9 to active MMP9 in cultures of human fetal lung fibroblasts (HFL-1, American Type Culture Collection # CCL-153). Unlike rat synoviocytes, HFL-1 cells were unable to process proMMP9 to the active form without addition of neutrophil elastase. […] Rather, the function of elastase in this assay may be to inactivate tissue inhibitors of matrix metalloproteinases (TIMPs) that repress endogenous pathways of MMP9 activation (Am J Respir Crit. Care Med; 1999; 159:1138-46).
HLF-1 were maintained in monolayer culture in DMEM with 10% FCS and were used between passage numbers 5-15. HLF-1 were embedded in collagen gels as described for rat SCW synoviocytes (vida supra). Half mL gels containing 0.4 million cells were dislodged into wells of 12 well Costar plates containing 1 mL/well of DMEM adjusted to contain 0.05% BSA and 100 ng/mL human TNFα (R&D Systems Cat #210-TA/CF). After overnight culture (37° C. and 5% CO2) wells were adjusted to contain an additional 0.5 mL of DMEM containing 0.05% BSA and with or without 13.2 μM Compound-α (final concentration was 3.3 μM Compound-α). Next, cultures were adjusted to contain 30 nM human elastase (Innovative Research). The plates were cultured an additional 72 hrs, at which time MMP9 secreted into the conditioned media was bound to gelatin-sepharose and evaluated by Western blot analysis as described for the rat synoviocyte cultures (vida supra). mAb-51/82 detected three forms of MMP9 in HFL-1 cultures.
A second experiment was performed to determine if the 80 kD form was mature active MMP9 and to determine the potency of Compound-α as an inhibitor of MMP9 maturation in this assay. HFL-1 cells embedded in collagen gels were cultured as described above in the presence of TNFα overnight and the cultures were then adjusted to contain 30 nM elastase and graded concentrations of Compound-α for an additional 72 hrs at which time MMP9 secreted into the conditioned media was bound to gelatin-sepharose and evaluated by Western blot analysis for active MMP9 using pAb-1246 raised against the N-terminal neoepitope of active MMP9 (Table 5). In the absence of Compound-α, pAb-1246 readily detected MMP9 with an electrophoretic mobility of approximately 80 kD. […] Inhibition occurred over a dose range with an IC50 of approximately 0.3 μM Compound-α.

[2] = molecular target: T2, proMMP9 activation to active MMP9 in rat synoviocytes (Rattus norvegicus, UniProt P50282); assay: Activation of proMMP9 in rat synoviocyte cultures (Western blot); type: cell-based
T2 construct: endogenous in cells; host or cells: primary synoviocytes from SCW-arthritic female Lewis rats, TNFα-stimulated
From the text: Activation of proMMP9 in Rat Synoviocyte Cultures
A primary synoviocytes line was derived from the periarticular tissue of arthritic rats. Arthritis was induced in female Lewis rats following an i.p. administration of streptococcal cell wall peptidoglycan polysaccharides (J Exp Med 1977; 146:1585-1602). Rats with established arthritis were sacrificed, and hind-limbs were severed, immersed briefly in 70% ethanol, and placed in a sterile hood. The skin was removed and the inflamed tissue surrounding the tibia-tarsal joint was harvested using a scalpel. Tissue from six rats was pooled, minced to approximately 8 mm^3 pieces, and cultured in Dulbecco's Modified Eagle's Medium (DMEM) containing 15% fetal calf serum (FCS). In the following weeks, cells migrated out of the tissue piece, proliferated, and formed a monolayer of adherent cells. The synoviocytes were lifted from culture plates with 0.05% trypsin and passaged weekly at 1:4 ratios in DMEM containing 10% FCS. Synoviocytes were used at passage 9 to investigate the ability of Compound-α to inhibit the maturation of MMP9 to active form.
Rat synoviocytes spontaneously expressed and activated MMP9 when cultured in collagen gels and stimulated with tumor necrosis factor-alpha (TNFα) (FIG. 1 and Table 3). Eight volumes of an ice-cold solution of 3.8 mg/mL rat tail collagen (Sigma Cat #C3867-1VL) were mixed with 1 volume of 1 M sodium bicarbonate and 1 volume of 10× Roswell Park Memorial Institute medium. The pH of the mixture was adjusted to pH 7 with 1 N sodium hydroxide and equal volumes of the pH-adjusted collagen solution were mixed with DMEM containing 0.8 million synoviocytes per mL. One half mL volumes were dispensed into Costar 24-well culture dishes and placed for one hr at 37° C. and 5% CO2, during which time the collagen solution formed a gel. Individual gels were dislodged into wells of 12-well Costar plates containing 1 mL/well of DMEM adjusted to contain 0.05% BSA and 100 ng/mL mouse TNFα (R&D Systems Cat #410-MT-010). […] After overnight culture at 37° C. and 5% CO2, wells were adjusted to contain an additional 0.5 mL of DMEM containing 0.05% BSA and Compound-α at 4× the final desired concentration (final culture volumes were 2 mL). The plates were cultured an additional 48 hrs, at which time 1 mL of conditioned media were harvested into fresh eppendorf tubes containing 40 μL/mL of a 50% slurry of gelatin-conjugated sepharose (GE Healthcare Cat #17-0956-01). Samples were rotated for 2 hrs at 4° C. before centrifugation 1 min×200 g. Supernatants were discarded. The gelatin-sepharose pellets were washed once with 1 mL of ice cold DMEM, resuspended in 50 μL of 2× reducing Leamli buffer and heated 5 min at 95° C. Fifteen μL of eluted proteins were resolved on 4-12% NuPAGE gels and transferred to 0.45 μm pore-sized nitrocellose blots. Next, blots were incubated in blocking buffer (5% milk in Tris-buffered saline containing 0.1% Tween-20) for 1 hr at RT and probed overnight (4° C.) with blocking buffer containing 1 μg/mL primary antibodies. Blots were next probed 1 hr at RT with 1/10,000 dilutions of goat anti-mouse IgG-HRP or goat anti-rabbit IgG-HRP (Santa Cruz) in blocking buffer and developed using SuperSignal® West Fempto Maximum Sensitivity Substrate. Chemiluminesence signal was analyzed using a ChemiDoc imaging system (BioRad Laboratories) and Quantity One® image software. Electrophoretic mobility was estimated based on the mobility of standards (Novex Sharp Pre-Stained Protein Standards P/N 57318). […]

T1 sequence (P14780 20-707 limits assumed): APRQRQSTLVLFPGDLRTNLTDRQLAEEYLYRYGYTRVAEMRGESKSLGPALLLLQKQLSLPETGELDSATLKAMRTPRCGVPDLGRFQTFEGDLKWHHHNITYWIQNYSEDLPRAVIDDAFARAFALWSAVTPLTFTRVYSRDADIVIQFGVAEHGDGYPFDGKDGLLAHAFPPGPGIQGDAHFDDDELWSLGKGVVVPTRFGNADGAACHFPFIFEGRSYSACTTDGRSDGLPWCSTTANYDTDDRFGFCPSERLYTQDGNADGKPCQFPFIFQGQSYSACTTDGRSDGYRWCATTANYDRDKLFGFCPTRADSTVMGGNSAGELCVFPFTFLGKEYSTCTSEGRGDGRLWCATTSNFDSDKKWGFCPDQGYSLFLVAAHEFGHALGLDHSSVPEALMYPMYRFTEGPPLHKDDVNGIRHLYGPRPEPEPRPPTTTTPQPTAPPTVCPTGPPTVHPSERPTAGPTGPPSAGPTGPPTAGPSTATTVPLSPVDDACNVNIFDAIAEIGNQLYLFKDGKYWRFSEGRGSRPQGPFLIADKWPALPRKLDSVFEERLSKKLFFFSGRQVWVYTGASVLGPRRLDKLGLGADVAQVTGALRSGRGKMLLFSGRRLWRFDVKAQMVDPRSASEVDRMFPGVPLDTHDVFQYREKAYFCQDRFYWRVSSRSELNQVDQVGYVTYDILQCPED
T2 sequence (P50282 20-708 limits assumed): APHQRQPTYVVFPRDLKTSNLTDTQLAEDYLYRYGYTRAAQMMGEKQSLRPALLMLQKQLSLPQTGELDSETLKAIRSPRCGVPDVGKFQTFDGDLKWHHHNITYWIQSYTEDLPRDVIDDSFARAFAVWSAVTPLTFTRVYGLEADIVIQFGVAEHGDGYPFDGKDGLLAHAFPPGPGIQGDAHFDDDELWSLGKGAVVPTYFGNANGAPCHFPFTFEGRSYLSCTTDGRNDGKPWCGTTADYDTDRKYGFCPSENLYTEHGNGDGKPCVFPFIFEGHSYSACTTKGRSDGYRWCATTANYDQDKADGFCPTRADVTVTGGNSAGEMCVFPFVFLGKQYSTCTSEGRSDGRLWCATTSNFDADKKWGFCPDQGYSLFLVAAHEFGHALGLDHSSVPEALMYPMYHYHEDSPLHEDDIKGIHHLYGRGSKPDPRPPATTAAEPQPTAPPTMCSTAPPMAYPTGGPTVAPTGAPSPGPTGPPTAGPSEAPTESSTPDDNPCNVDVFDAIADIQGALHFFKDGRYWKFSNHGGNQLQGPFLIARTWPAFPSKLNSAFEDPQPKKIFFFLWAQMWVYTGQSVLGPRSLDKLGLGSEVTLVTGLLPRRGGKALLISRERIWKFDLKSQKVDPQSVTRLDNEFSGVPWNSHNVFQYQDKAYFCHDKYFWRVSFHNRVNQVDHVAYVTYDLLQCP

Question: Cc1nc(C)c(-c2csc(Nc3cc(S(N)(=O)=O)ccc3OC(C)C)n2)s1 [Compound α, 3-(2′,4′-Dimethyl-[4,5′]bithiazolyl-2-ylamino)-4-isopropoxy-benzenesulfonamide.HBr] was tested. Which “Signal, Total” value ([1]; 3.3 μM Compound-α, 30 nM elastase, final 72 hrs, mAb-L51/82) did it give?
Answer: 91346 INT * mm^2

Question: What about the “Percent of total signal, 80 kD” value ([1]; 3.3 μM Compound-α, mAb-L51/82) of the same compound?
Answer: 7%

Question: What about the “Percent of total signal, 86 kD” value ([1]; 3.3 μM Compound-α, mAb-L51/82) of the same compound?
Answer: 47%

Question: And the “Percent of total signal, 100 kD” value ([1]; 3.3 μM Compound-α, mAb-L51/82)?
Answer: 46%

Question: What about the inhibition at 0.12 µM ([1]; HFL1, 0.12 μM Compound-α, active MMP9, pAb-1246) of the same compound?
Answer: 0%

Question: What about the inhibition at 0.37 µM ([1]; HFL1, 0.37 μM Compound-α, active MMP9, pAb-1246) of the same compound?
Answer: 73%

Question: And the inhibition at 1.1 µM ([1]; HFL1, 1.1 μM Compound-α, active MMP9, pAb-1246)?
Answer: 99%

Question: And the inhibition at 3.3 µM ([1]; HFL1, 3.3 μM Compound-α, active MMP9, pAb-1246)?
Answer: 100%

Question: And the inhibition at 10 µM ([1]; HFL1, 10 μM Compound-α, active MMP9, pAb-1246)?
Answer: 100%

Question: And the IC50 ([1]; HFL-1 cultures, pAb-1246, read-out: IC50 for inhibition of processing of proMMP9 to active MMP9)?
Answer: ~300 nM

Question: What about the inhibition at 0.37 µM ([2]; 0.37 μM Compound-α, 80 kD active MMP9, pAb-1246) of the same compound?
Answer: 12%

Question: What about the inhibition at 1.1 µM ([2]; 1.1 μM Compound-α, 80 kD active MMP9, pAb-1246) of the same compound?
Answer: 46%

Question: What about the inhibition at 3.3 µM ([2]; 3.3 μM Compound-α, 80 kD active MMP9, pAb-1246) of the same compound?
Answer: 86%

Question: What about the inhibition at 10 µM ([2]; 10 μM Compound-α, 80 kD active MMP9, pAb-1246) of the same compound?
Answer: 97%

Question: What about the IC50 ([2]; rat synoviocytes, pAb-1246 band chemiluminescence, read-out: IC50 for inhibition of production of active MMP9) of the same compound?
Answer: ~1100 nM

Source: US20120129811A1, “TRICYCLIC INHIBITORS OF PRO-MATRIX METALLOPROTEINASE ACTIVATION” (priority 2010, published 2012)
